For this test, the target named is Mitogen-activated protein kinase kinase kinase kinase 1 (Homo sapiens, UniProt Q92918). Nature of the test: Inhibition of full length recombinant human N-terminal GST-tagged HPK1 expressed in baculovirus infected Sf21 insect cells preincubated for 15 mins followed by MBP and ATP addition measured after 120 mins by ADP-Glo reagent based assay. (In general: In ADP-Glo the light output rises with the ADP produced.)

SMILES strings stand for the structures. pIC50: −log10 of the molar value. Where only a bound is given, the exact number is not on record here.

Our source for the IC50 values is BindingDB's records for doi:10.1021/acsmedchemlett.4c00023 (n/a, 2024).

What is called pIC50 is the negative decadic logarithm of the IC50, by convention in mol/L.

Sequence of Mitogen-activated protein kinase kinase kinase kinase 1 (Q92918 whole entry): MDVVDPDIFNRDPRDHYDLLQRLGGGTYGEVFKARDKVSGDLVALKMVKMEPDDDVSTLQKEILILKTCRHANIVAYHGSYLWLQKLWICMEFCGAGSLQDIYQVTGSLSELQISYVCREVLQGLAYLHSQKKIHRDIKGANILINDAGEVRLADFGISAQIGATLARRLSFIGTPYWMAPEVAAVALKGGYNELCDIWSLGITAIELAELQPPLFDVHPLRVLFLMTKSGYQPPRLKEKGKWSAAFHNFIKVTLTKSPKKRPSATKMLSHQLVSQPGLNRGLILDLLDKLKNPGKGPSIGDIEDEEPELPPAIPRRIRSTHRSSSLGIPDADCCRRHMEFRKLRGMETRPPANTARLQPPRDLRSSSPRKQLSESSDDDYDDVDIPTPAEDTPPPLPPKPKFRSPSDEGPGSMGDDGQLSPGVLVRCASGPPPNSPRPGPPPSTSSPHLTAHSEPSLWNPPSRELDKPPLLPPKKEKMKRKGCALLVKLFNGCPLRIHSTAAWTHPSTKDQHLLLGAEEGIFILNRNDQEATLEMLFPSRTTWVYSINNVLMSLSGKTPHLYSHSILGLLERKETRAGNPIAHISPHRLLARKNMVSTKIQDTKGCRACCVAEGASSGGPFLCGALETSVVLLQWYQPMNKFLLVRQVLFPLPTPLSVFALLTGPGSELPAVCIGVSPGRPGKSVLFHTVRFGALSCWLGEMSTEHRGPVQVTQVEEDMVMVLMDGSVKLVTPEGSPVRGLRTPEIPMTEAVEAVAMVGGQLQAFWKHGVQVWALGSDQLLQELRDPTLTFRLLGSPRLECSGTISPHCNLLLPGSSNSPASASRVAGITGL

In the case of `Cc1c(N2CCc3cnc(Nc4ccc(N5CCN(C)CC5)cc4)nc3C2)cnc2c1NCCO2` [US20240025922, Example 55], the pIC50 was above 7.00.
In the case of `Cc1c(N2CCc3cnc(Nc4ccc(Cn5cccn5)cc4)nc3C2)cnc2c1NCCO2` [US20240025922, Example 187], the pIC50 was above 7.00.
As for `CCc1c(N2CCc3cnc(Nc4ccc(CS(C)(=O)=O)cc4)nc3C2)cnc2c1NCCO2` [US20240025922, Example 145], the pIC50 was above 7.00.
On to `Cc1c(N2CCc3cnc(Nc4ccc(Cn5nccn5)cc4)nc3C2)cnc2c1NCCO2` [US20240025922, Example 185], for which the pIC50 is above 7.00.
To `COC1CCN(c2ccc(Nc3ncc4c(n3)CN(c3cnc5c(c3C)NCCO5)CC4)cc2)CC1` [US20240025922, Example 113] belongs above 7.00; to `Cc1c(N2CCc3cnc(Nc4ccc5c(c4)CCOC5)nc3C2)cnc2c1NCCO2` [US20240025922, Example 84], above 7.00.
